Assay results published in patent publication US20250283178A1, “FOXC1 EXPRESSION AS A COMPLEMENTARY DIAGNOSTIC ASSAY FOR PREDICTING EFFICACY OF ONCOLOGY DRUGS AND DRUG COMBINATION REGIMENS AND METHODS FOR USE” (3N DIAGNOSTICS LTD., priority 2022, published 2025).

How the values were obtained:
[1] = system: in vitro FOXC1+ cancer model; conditions: concurrent treatment with Wnt signaling inhibition; Ray et al., 2015b; cited from earlier work
TNBC [2] = conditions: two separate Phase II trials (Jovanovic et al., 2017; Park et al., 2018); cited from earlier work
ER+ breast cancer = conditions: Kornblum et al., 2018; cited from earlier work
leukemia stem cells = conditions: Fukushima et al., 2016; cited from earlier work
GLI2 = conditions: abrogates leukemia stem cell dormancy; Sadarangani et al., 2015; cited from earlier work
TNBC [3] = conditions: Raninga et al., 2020; cited from earlier work
[4] = system: fibroblast activation and tumor-fibroblast crosstalk; conditions: Fujiwara et al., 2020; cited from earlier work
TGFβ1 = conditions: through a GLI2 inhibitory mechanism; Didiasova et al., 2017; cited from earlier work
[5] = system: lung, liver and colon cancer; conditions: combination; Qin et al., 2020; cited from earlier work
[6] = system: cancer-associated fibroblasts; conditions: Aboulkheyr Es et al., 2020; cited from earlier work
[7] = system: CXCR4-mediated invasion and metastasis; conditions: Pan et al., 2018; cited from earlier work
prostate cancer = conditions: Gravina et al., 2015; cited from earlier work
[8] = system: cancer stem cells in AML and glioblastoma; conditions: Hira et al., 2020; cited from earlier work
gastric cancer = conditions: Wang et al., 2016b; cited from earlier work
[9] = system: breast CSC count in preoperative tumors; conditions: Goldstein et al., 2020; cited from earlier work
[10] = system: HER2-positive breast cancer; conditions: Singh et al., 2013, cited from earlier work
breast cancer = conditions: Ginestier et al., 2010; cited from earlier work
[11] = system: ER and or PR-positive cells; conditions: Wang et al., 2015; cited from earlier work
binding of SOX9 to FOXC1 = conditions: Tang et al., 2020; cited from earlier work
TNBC cells = conditions: cited from earlier work
[12] = system: ER+LN-breast cancer patients; assay: Adjuvant chemotherapy added to adjuvant Tamoxifen, all-cause mortality (SCAN-B dataset); assay type: in vivo, human; conditions: FOXC1 greater than 60th percentile or VERESCA FOXC1 IHC Score of 2; adjuvant Tamoxifen X 5 years with or without adjuvant chemotherapy
Source text: The prognostic utility of the VERESCA® FOXC1 IHC assay and the VERESCA® FOXC1Clin Criteria recurrence risk score was additionally validated in a second independent clinical trial dataset (SCAN-B) comprising 3207 breast cancer patients for whom clinical, treatment, gene expression data and outcomes data (Overall Survival) were available.
FOXC1 expression cutoff value was 60th percentile of expression of FOXC1 mRNA on qRTPCR, 60th percentile of expression of FOXC1 mRNA on RNA-Seq, or FOXC1 Score of 2 using VERESCA® FOXC1 IHC kit. FOXC1 expression less than the 60th percentile (FOXC1<60TH % ILE) by mRNA EXPRESSION or <VERESCA® FOXC1 IHC Score of 2 predicts LOW RISK and efficacy of the current standard of care which is adjuvant Tamoxifen X 5 years) in successfully reducing disease recurrence risk, and its resultant impact on all-cause mortality, without the need for additional/adjuvant chemotherapy.
The ability of the VERESCA® FOXC1Clin criteria recurrence risk score to predict a statistically significant decrease in all-cause mortality rate in the 8-year period post-diagnosis in response to having received adjuvant chemotherapy in addition to adjuvant Tamoxifen therapy was validated in SCAN-B clinical trial dataset (Odds Ratio 6.477 [Cl 2.974-14.107], p=0.0000001).

TNBC patients = assay: I-SPY2 neoadjuvant Durvalumab arm, pathologic complete response by MK167+FOXC1 predictor; assay type: in vivo, human; conditions: Durvalumab Arm: Olaparib+Paclitaxel+Durvalumab
Procedure: (§1) Methods. 41 Pre-NACT tumor biopsy MK167 and FOXC1 mRNA expression values were retrospectively obtained from TNBC patients and HER2 negative ER+ breast cancer patients who had been enrolled and treated in the I-SPY2 clinical trial (Durvalumab arm: 21, Control arm: 20) and correlated with the rate of observed pathologic complete response (pCR). The area under the curve (AUC) of each model was calculated and used to determine suitable cutoff values to maximize Negative Predictive Value (NPV) and Sensitivity for pCR prediction.
as §1, with “TNBC” for “TNBC patients and HER2 negative ER+ breast cancer”

[13] = system: HER2 negative ER+ breast cancer patients; assay: as above; assay type: in vivo, human; conditions: FIG. 16
Procedure: as §1

Molecule: CC(C)C[C@H](NC(=O)[C@H](Cc1ccccc1)NC(=O)c1cnccn1)B(O)O [Bortezomib]
- emergence of resistant clones / cancer stem cell escape [1]: prevented the emergence of such resistant clones

Molecule: CO[C@H]1C[C@@H]2CC[C@@H](C)[C@@](O)(O2)C(=O)C(=O)N2CCCC[C@H]2C(=O)O[C@H]([C@H](C)C[C@@H]2CC[C@@H](OCCO)[C@H](OC)C2)CC(=O)[C@H](C)/C=C(\C)[C@@H](O)[C@@H](OC)C(=O)[C@H](C)C[C@H](C)/C=C/C=C/C=C/1C [Everolimus]
- efficacy (TNBC [2]): failed to show any demonstrable efficacy
- progression free survival (ER+ breast cancer): prolong progression free survival

Molecule: CN1CC[C@@H](NC(=O)Nc2ccc(C#N)cc2)C[C@@H]1c1nc2ccccc2[nH]1 [Glasdegib]
- targeting of leukemia stem cells (leukemia stem cells): successfully target leukemia stem cells
- downstream effect on GLI2 (GLI2): GLI2 inhibition

Molecule: C[C@@]12OC(=O)[C@]1([C@@H](O)[C@@H]1C=CCCC1)NC(=O)[C@@H]2CCCl [Marizomib]
- development of lung and brain metastasis (TNBC [3]): significantly reduced the development of lung and brain metastasis
- tumor growth (TNBC [3]): marked decline in tumor growth

Molecule: Cc1ccc(=O)n(-c2ccccc2)c1 [Pirfenidone]
- fibroblast activation and tumor-fibroblast crosstalk in the TME [4]: capable of inhibiting fibroblast activation and tumor-fibroblast crosstalk
- fibrosis / TGFβ1 (TGFβ1): decrease fibrosis by decreasing TGFβ1
- therapeutic benefit of PD1/PDL1 immune checkpoint blockade [5]: augment the observed therapeutic benefit
- immunosuppressive capacity of cancer-associated fibroblasts [6]: successful in reducing immunosuppressive capacity

Molecule: c1cc(CN2CCCNCCNCCCNCC2)ccc1CN1CCCNCCNCCCNCC1 [Plerixafor]
- CXCR4-mediated invasion and metastasis [7]: successful in reversing the CXCR4-mediated invasion and metastasis
- incidence of bone metastasis (prostate cancer): successfully reduce the incidence of bone metastasis
- mobilization of cancer stem cells from their niche [8]: mobilize cancer stem cells from their niche

Molecule: CC(C)Cc1ccc([C@@H](C)C(=O)NS(C)(=O)=O)cc1 [Repartaxin]
- therapeutic efficacy (gastric cancer): therapeutic efficacy
- decrease in breast CSC count [9]: more than 20%
- breast CSC activity [10]: successfully reduced breast CSC activity
- therapeutic efficacy in combination ([10]; combined with Lapatinib): enhanced therapeutic efficacy when combined with Lapatinib
- therapeutic efficacy (breast cancer): therapeutic efficacy

Molecule: CN(C)C/C=C/C(=O)Nc1ccc(C(=O)Nc2cccc(Nc3ncc(Cl)c(-c4c[nH]c5ccccc45)n3)c2)cc1 [THZ1]
- effect of treatment on cells [11]: largely unaffected
- binding of SOX9 to FOXC1 and enhancer/SE-associated transcription factors (binding of SOX9 to FOXC1): significantly disrupted
- sensitivity of cell proliferation (TNBC cells; CDK7 inhibitor, Wang et al., 2015): selectively sensitive
- apoptotic cell death (TNBC cells; Tang et al., 2020): increasing apoptotic cell death

Molecule: CC/C(=C(\c1ccccc1)c1ccc(OCCN(C)C)cc1)c1ccccc1 [Tamoxifen]
- risk of death (all-cause mortality) [12]: greater than 24%

Molecule: Durvalumab
- pCR rate (TNBC patients; predicted non-responders (MK167+FOXC1 mRNA)): 0%
- pCR rate (TNBC patients; predicted responders (MK167+FOXC1 mRNA)): 75%
- pCR rate ([13]; predicted non-responders): 15.38%
- pCR I rate ([13]; predicted responders): 38.1%
- pCR II rate ([13]; predicted responders): 62.5%
